Results from PMC7956560, “New 3-Aryl-2-(2-thienyl)acrylonitriles with High Activity Against Hepatoma Cells” (International Journal of Molecular Sciences, 2021).

How the values were obtained:
[1] = tested on: human HepG2 hepatoblastoma cells; assay: Growth inhibition, crystal violet staining, HepG2; type: cell-based; conditions: 48 h incubation, mean ± SD, read-out: Anti-proliferative activity IC50, HepG2
Method: (§1) The well-differentiated p53 wild-type human hepatoblastoma cell line HepG2 (ATCC# 8065) and the highly differentiated p53 mutated human hepatocellular carcinoma cell line Huh-7 (JCRB#0403) were grown in RPMI 1640 medium supplemented with 10% fetal bovine serum and 100 U/mL penicillin and […] streptomycin. Murine AML-12 hepatocytes were obtained from ATCC (CRL-2254) and grown in DMEM/F-12 Glutamax medium supplemented with 10% fetal bovine serum, 10 µg/mL insulin, 5.5 µg/mL transferrin, 5 ng/mL selenium (Gibco ITS-G 100X) and 40 ng/mL dexamethasone (Sigma-Aldrich). All cell lines were incubated in a 37 °C, 5% CO2, 95% humidified atmosphere.
(§2) Treatment-induced changes in cell number were evaluated by crystal violet staining, as previously described. Briefly, 1.500 cells per well were seeded in 96-well plates for 24 h at 37 °C, 5% CO2. For the experiments with HepG2 and Huh-7 cell lines, cells were incubated with rising concentrations (0–20 µM) of the new compounds (1a–1o) for 48 h. AML12-cells were treated with compounds 1a, 1b, 1c, 1e, 1i and 1j for 48 h and at concentrations ranging from 0.5–64 µM. Thereafter, the cells were fixed with 1% glutaraldehyde and stained with 0.1% crystal violet (Sigma-Aldrich). The unbound dye was removed by rinsing with water. Bound crystal violet was solubilized with 0.2% Triton X-100 (Sigma-Aldrich). Light extinction of crystal violet, which increases linearly with cell number, was analyzed at 570 nm using an ELISA-Reader (Dynex Technologies, Denkendorf, Germany). All experiments were carried out in duplicate or triplicate.

human Huh-7 HCC cells = assay: Growth inhibition, crystal violet staining, Huh-7; type: cell-based; conditions: 48 h incubation, mean ± SD, read-out: Anti-proliferative activity IC50, Huh-7
Method: as §1, §2

[2] = tested on: non-malignant murine AML-12 hepatocytes; assay: Growth inhibition, crystal violet staining, AML-12; type: cell-based; conditions: for IC50 against AML-12 hepatocytes relative to hepatoma cells: AML-12 vs hepatoma cells (HepG2, Huh-7), 48 h; for IC50: Mus musculus, AML12, 48 h incubation, mean ± SD, read-out: Anti-proliferative activity IC50, AML-12
Method: as §1, §2

HepG2 cells [3] = assay: Colony-formation assay; type: cell-based, human; conditions: 1, 5, 10 µM, 14 days
Method: HepG2 cells were seeded in 6-well plates at a density of 300 cells/well and allowed to attach overnight. […] Then, the plates were washed twice with PBS, fixed with 4% formaldehyde for 1 h, and stained with 0.5% crystal violet for 3 min. Excessive crystal violet was washed out and the colonies were counted under the microscope. A colony was defined as a cell aggregate with 50 or more cells. Representative images were taken with a kappa digital camera system (Kappa Optronics GmbH, Germany). A total of n = 3 experiments were performed, and significance was tested by one-way ANOVA assays.

[4] = tested on: caspase-3 activity of HepG2 cells; assay: Apoptosis-specific caspase-3 activity; type: cell-based, human; conditions: 24 h; for caspase-3 activity (in words): HepG2, 1 and 10 µM
Method: Changes in caspase-3 activity were measured by the cleavage of the fluorogenic substrate AC-DEVD-AMC (EMD Millipore, Billerica, MA, USA), as described previously. After 24 h of incubation with 1a, 1b, 1c, 1e and sorafenib (1 and 10 µM) the cells were harvested and lysed with lysis buffer. Subsequently, the lysates were incubated for 1 h at 37 °C with a substrate solution containing 20 μg/mL AC-DEVD-AMC, 20 mM HEPES, 10% glycerol and 2 mM DTT at pH 7.5. Substrate cleavage was measured fluorometrically using a Varioskan Flash Fluorometer (Thermo Fisher Scientific, Waltham, MA, USA; filter sets: ex 360/40 nm, em 460/10 nm). n = 3 independent measurements were performed in triplicate, and data are given as the mean percentage increase ± SD above control, which was set 100%.

[5] = tested on: HepG2-tumors grown on membranes of fertilized chicken eggs; assay: Chorioallantoic membrane (CAM) assay; type: in vivo; conditions: for tumor reduction vs PBS-treated controls (in words): topical treatment 72 h, 1b 0–10 µM, 1c 0–2.5 µM, sorafenib 10 µM
Method: The chorioallantoic membrane (CAM) assay was performed as described previously. Fertilized chicken eggs (Gallus gallus) were obtained from commercial sources (Valo GmbH, Germany) and incubated in a humid environment at 38 °C. On day 3 of the egg development, a window was cut in the eggshell to access the developing vascular network of the CAM. At day 10 of chicken embryo development, a sterile silicon ring (10 mm diameter) was placed on the CAM and tumor plugs of 3 × 10^6 HepG2 cells in 20 µL Matrigel (BD Biosciences) with reduced growth factors were placed inside the silicon ring. After 24 h at 38 °C in an incubator, the tumor plaques attached and connected to the (tumor-)feeding CAM microvasculature. Then, the tumor plaques were topically treated with either PBS (negative control) or PBS containing rising concentrations of 1b (0–10 µM), 1c (0–2.5 µM) or sorafenib (10 μM) for 3 days. Tumor growth and viability of the embryo were controlled daily by stereo microscopy. After 72 h of treatment, the tumors were recovered for weighing and pictures were taken using a stereomicroscope equipped with a Kappa digital camera system (Kappa Optronics GmbH, Germany). For data analysis, the tumor weight of 1c-treated and untreated control tumors was determined and the mean weight of treated vs. untreated tumors of 11 eggs for each condition was calculated. Statistical significance evaluated by one-way ANOVA tests.

HepG2 cells [6] = assay: LDH release assay (unspecific cytotoxicity); type: cell-based, human; conditions: HepG2, 0.5 and 10 µM, 12 or 24 h
Method: Unspecific cytotoxicity induced by treatment with 0.5 µM and 10 µM of 1a, 1b, 1c and sorafenib (LC Laboratories, Woburn, MA, USA) was determined by measuring the release of lactate dehydrogenase (LDH) from HepG2 cells into the supernatant after 12 and 24 h (Cytotoxicity Detection KitPLUS LDH, Roche Diagnostics GmbH, Mannheim, Germany). The supernatant of treated samples was collected, and adherent non-treated cells were lysed with 2% Triton X-100 for 10 min to determine the maximum LDH release. All samples were mixed with catalyst and dye solution for 30 min, resulting in the formation of formazan dye proportional to LDH enzyme activity. The absorbance was measured at 490/630 nm using an ELISA reader (Dynex Technologies, Denkendorf, Germany) and cytotoxicity was determined by subtracting the percentage of LDH release under control conditions of those from treated samples. Experiments were performed in duplicate and data are given as mean percentage changes ± SD as compared to controls of n = 3 experiments.

Pim-1 = conditions: cited from earlier work
VEGFR-2 (KDR) = target: T1, VEGFR-2 (KDR) (Homo sapiens, UniProt P35968); assay: Enzymatic kinase assay (Eurofins KinaseProfiler); type: biochemical; conditions: 10 µM compound, cell-free
T1 construct: purchased Eurofins KinaseProfiler service (Eurofins, France)
Method: (§3) The kinase inhibiting potency of compound 1a, 1b and 1c (10 µM) was screened in a cell-free kinase assay, which consisted of a custom panel of 43 human protein kinases for 1c (listed in Figure 5A), as well as a subpanel of six kinases for 1a and 1b (Figure 5B). The initial panel was chosen to screen the lead compound 1c based on the union of two strategies. A total of 29 kinases were selected based on the correlated results of three in silico target prediction methods including structure- as well as ligand-based techniques and 20 kinases because of their relevance for HCC (note that six kinases were part of both strategies).
(§4) The assay was performed by Eurofins KinaseProfilerTM service (Eurofins, France) and the determination of enzymatic activity was assessed as previously described. Additionally, an IC50 determination of compound 1c against the VEGFR-2 was performed with a concentration range of 0.003 to 30 µM.

CLK1 = target: T2, CLK1 (Homo sapiens, UniProt P49759); assay: Enzymatic kinase assay (Eurofins KinaseProfiler); type: biochemical; conditions: 10 µM compound, cell-free
T2 construct: purchased Eurofins KinaseProfiler service (Eurofins, France)
Method: as §3, §4

T1 sequence (P35968 20-1356): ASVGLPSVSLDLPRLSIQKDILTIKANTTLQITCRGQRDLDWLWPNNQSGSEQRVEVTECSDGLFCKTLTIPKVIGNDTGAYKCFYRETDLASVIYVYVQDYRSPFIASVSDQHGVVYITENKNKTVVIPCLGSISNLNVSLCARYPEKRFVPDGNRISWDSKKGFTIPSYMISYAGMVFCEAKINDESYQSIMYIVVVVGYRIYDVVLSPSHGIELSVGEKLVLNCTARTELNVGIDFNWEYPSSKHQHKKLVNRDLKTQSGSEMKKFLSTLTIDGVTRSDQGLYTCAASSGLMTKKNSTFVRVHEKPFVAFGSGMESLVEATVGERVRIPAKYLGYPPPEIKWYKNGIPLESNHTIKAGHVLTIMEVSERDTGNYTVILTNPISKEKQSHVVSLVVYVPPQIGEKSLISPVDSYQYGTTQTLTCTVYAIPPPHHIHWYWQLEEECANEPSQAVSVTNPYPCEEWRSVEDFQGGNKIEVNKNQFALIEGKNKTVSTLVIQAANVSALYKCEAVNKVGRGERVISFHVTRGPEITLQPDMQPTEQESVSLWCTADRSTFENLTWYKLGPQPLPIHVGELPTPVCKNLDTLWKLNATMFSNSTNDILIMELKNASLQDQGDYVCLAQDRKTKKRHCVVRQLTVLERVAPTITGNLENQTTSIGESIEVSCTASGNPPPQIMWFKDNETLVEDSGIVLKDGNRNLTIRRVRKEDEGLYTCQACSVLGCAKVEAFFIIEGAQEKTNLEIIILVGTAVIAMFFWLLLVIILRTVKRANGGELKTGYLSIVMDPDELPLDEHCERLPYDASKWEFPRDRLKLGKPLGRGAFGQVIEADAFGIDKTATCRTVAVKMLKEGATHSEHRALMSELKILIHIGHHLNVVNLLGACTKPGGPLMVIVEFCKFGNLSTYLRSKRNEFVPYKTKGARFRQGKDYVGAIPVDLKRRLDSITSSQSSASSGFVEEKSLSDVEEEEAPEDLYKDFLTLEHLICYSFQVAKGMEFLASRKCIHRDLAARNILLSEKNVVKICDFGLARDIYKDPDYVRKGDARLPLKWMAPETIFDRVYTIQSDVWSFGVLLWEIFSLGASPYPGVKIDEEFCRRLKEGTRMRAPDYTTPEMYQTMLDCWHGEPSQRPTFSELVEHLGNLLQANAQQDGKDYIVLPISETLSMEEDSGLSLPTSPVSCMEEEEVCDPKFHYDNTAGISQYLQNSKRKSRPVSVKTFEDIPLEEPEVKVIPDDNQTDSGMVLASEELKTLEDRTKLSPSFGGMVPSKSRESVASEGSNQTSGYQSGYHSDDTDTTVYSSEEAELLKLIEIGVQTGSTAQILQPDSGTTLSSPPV
T2 sequence (P49759 whole entry): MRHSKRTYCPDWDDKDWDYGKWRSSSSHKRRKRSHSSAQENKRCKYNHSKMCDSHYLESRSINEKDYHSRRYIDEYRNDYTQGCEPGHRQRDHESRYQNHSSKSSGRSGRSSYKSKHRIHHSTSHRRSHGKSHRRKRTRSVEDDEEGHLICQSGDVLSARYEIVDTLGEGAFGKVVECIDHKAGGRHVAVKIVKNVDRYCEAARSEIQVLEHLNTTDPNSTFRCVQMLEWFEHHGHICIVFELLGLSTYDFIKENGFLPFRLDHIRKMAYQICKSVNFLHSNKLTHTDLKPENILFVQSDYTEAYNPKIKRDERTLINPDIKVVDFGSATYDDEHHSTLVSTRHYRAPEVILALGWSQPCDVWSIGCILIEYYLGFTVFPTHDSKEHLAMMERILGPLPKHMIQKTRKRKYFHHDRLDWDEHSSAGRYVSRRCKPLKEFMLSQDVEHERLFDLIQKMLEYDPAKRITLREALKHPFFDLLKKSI

COc1ccc(C=C(C#N)c2cccs2)cc1C [Compound 1e, 2-[1-Cyano-2-(3-methyl-4-methoxyphenyl)-(E)-ethenyl)]-thiophene]
IC50 [1]: 1.3 ± 0.17 µM
IC50 (human Huh-7 HCC cells): 1.85 ± 0.21 µM
IC50 against AML-12 hepatocytes relative to hepatoma cells [2]: up to 10 fold
IC50 [2]: 14.8 ± 2.39 µM
effect on HepG2 colony formation (in words) (HepG2 cells [3]): significantly inhibited HepG2 colony formation
caspase-3 activity (in words) [4]: dose-dependently induced caspase-3 activity

CNC(=O)c1cc(Oc2ccc(NC(=O)Nc3ccc(Cl)c(C(F)(F)F)c3)cc2)ccn1 [Sorafenib, sorafenib, reference compound]
IC50 [1]: 2.73 ± 0.76 µM
IC50 (human Huh-7 HCC cells): 2.5 ± 0.14 µM
tumor reduction vs PBS-treated controls (in words) [5]: pronounced tumor reductions
LDH release / unspecific cytotoxicity (in words) (HepG2 cells [6]): do not exert considerable unspecific cytotoxicity
caspase-3 activity (in words) [4]: dose-dependently induced caspase-3 activity
Pim-1 inhibitory activity (in words) (Pim-1): no Pim-1 inhibitory activity

COCCOc1ccc(/C=C(\C#N)c2cccs2)cc1OCCOC [Compound 1h, 2-{1-Cyano-2-[3,4-bis(2-methoxyethoxy)phenyl]-(E)-ethenyl}-thiophene]
IC50 [1]: > 20 µM
IC50 (human Huh-7 HCC cells): > 20 µM

COc1ccc(/C=C(\C#N)c2cccs2)cc1F [Compound 1j, 2-[1-Cyano-2-(3-fluoro-4-methoxyphenyl)-(E)-ethenyl]-thiophene]
IC50 [1]: 4.9 ± 1.54 µM
IC50 (human Huh-7 HCC cells): 5.7 ± 1.2 µM
IC50 [2]: 9.42 ± 0.91 µM

COCCOc1cc(/C=C(\C#N)c2cccs2)ccc1OC [Compound 1g, 2-[1-Cyano-2-[4-Methoxy-3-(2-methoxyethoxy)phenyl]-(E)-ethenyl}-thiophene]
IC50 [1]: > 20 µM
IC50 (human Huh-7 HCC cells): > 20 µM

COc1cc(/C=C(\C#N)c2cccs2)ccc1-c1ccccc1Cl [Compound 1f]
IC50 [1]: > 20 µM
IC50 (human Huh-7 HCC cells): > 20 µM

N#C/C(=C\c1cccc(O)c1)c1cccs1 [Compound 1m, 2-[1-Cyano-2-(3-hydroxyphenyl)-(E)-ethenyl]-thiophene]
IC50 [1]: > 20 µM
IC50 (human Huh-7 HCC cells): > 20 µM

CN1CCN(c2ccc(/C=C(\C#N)c3cccs3)cc2)CC1 [Compound 1i, 2-[1-Cyano-2-(4-N-methylpiperazin-1-ylphenyl)-(E)-ethenyl]-thiophene]
IC50 [1]: 9.3 ± 0.82 µM
IC50 (human Huh-7 HCC cells): 11.8 ± 0.56 µM
IC50 [2]: 20.5 ± 1.25 µM

CN(C)c1ccc(C=C(C#N)c2cccs2)cc1 [Compound 1b]
IC50 [1]: 0.72 ± 0.09 µM
IC50 (human Huh-7 HCC cells): 0.67 ± 0.13 µM
IC50 against AML-12 hepatocytes relative to hepatoma cells [2]: up to 10 fold
IC50 [2]: 2.72 ± 0.78 µM
effect on HepG2 colony formation (in words) (HepG2 cells [3]): significantly inhibited HepG2 colony formation
tumor reduction vs PBS-treated controls (in words) [5]: pronounced tumor reductions
tolerability, mortality and development of chicken embryos ([5]; treated vs untreated eggs): well tolerated
LDH release / unspecific cytotoxicity (in words) (HepG2 cells [6]): do not exert considerable unspecific cytotoxicity
caspase-3 activity compared with the other compounds (in words) ([4]; HepG2, 10 µM): comparably stronger increase in caspase-3 activity than the other compounds
caspase-3 activity (in words) [4]: dose-dependently induced caspase-3 activity
inhibition at 10 µM (VEGFR-2 (KDR)): 86%

COc1ccc(C=C(C#N)c2cccnc2)cc1O [Compound 2, reference compound]
IC50 [1]: 6.26 ± 1.18 µM

COc1cc(/C=C(\C#N)c2cccs2)ccc1O [Compound 1d]
IC50 [1]: > 20 µM
IC50 (human Huh-7 HCC cells): > 20 µM

COc1ccc(/C=C(\C#N)c2cccs2)cc1Br [Compound 1l, 2-[1-Cyano-2-(3-bromo-4-methoxyphenyl)-(E)-ethenyl]-thiophene]
IC50 [1]: 13.9 ± 1.16 µM

Cn1ccc2cc(/C=C(\C#N)c3cccs3)ccc21 [Compound 1o, 2-{1-Cyano-2-[N-methylindol-5-yl]-(E)-ethenyl}-thiophene]
IC50 [1]: > 20 µM
IC50 (human Huh-7 HCC cells): > 20 µM

COc1ccc(/C=C(\C#N)c2cccs2)cc1OCCCN1CCOCC1 [Compound 1n, 2-{1-Cyano-2-[4-methoxy-3-(3-morpholinopropoxy)phenyl]-(E)-ethenyl}-thiophene]
IC50 [1]: > 20 µM
IC50 (human Huh-7 HCC cells): > 20 µM

COc1ccc(C=C(C#N)c2cccs2)cc1 [Compound 1a]
IC50 [1]: 1.46 ± 0.21 µM
IC50 (human Huh-7 HCC cells): 1.2 ± 0.42 µM
IC50 against AML-12 hepatocytes relative to hepatoma cells [2]: up to 10 fold
IC50 [2]: 6.79 ± 0.32 µM
effect on HepG2 colony formation (in words) (HepG2 cells [3]): significantly inhibited HepG2 colony formation
LDH release / unspecific cytotoxicity (in words) (HepG2 cells [6]): do not exert considerable unspecific cytotoxicity
caspase-3 activity (in words) [4]: dose-dependently induced caspase-3 activity
inhibition at 10 µM (CLK1): 68%
inhibition of VEGFR-2 (KDR) (VEGFR-2 (KDR)): lacks any activity

COCCOc1ccc(/C=C(\C#N)c2cccs2)cc1F [Compound 1k, 2-{1-Cyano-2-[3-fluoro-4-(2-methoxyethoxy)phenyl]-(E)-ethenyl}-thiophene]
IC50 [1]: > 20 µM
IC50 (human Huh-7 HCC cells): > 20 µM
